Assay results reported in patent publication US20040110676A1, “Methods for modulating cell survival” (priority 2000, published 2004).

Assays:
[1] = test system: DEVD-ase activity (caspase-2, -3, -7); test: DEVD-ase (caspase) activity after kainic acid-induced seizures; type: in vivo, mice; settings: 8 hours after KA-induced seizures
Description: One week following KA injection, brains were removed from one group of the mice and immediately frozen in isopentene on dry ice. Serial 30 μm coronal cryostat sections were cut through the entire hippocampus. After every fifth section, two sections were removed for quantitative analysis and fixed in 3% paraformaldehyde for 30 minutes in preparation for histochemical staining. Degenerating neurons were identified in hippocampal sections by Fluoro-Jade™ histochemistry (Histo-Chem Inc.), silver staining (FD Neurotechnologies) and by TUNEL™ (Boehringer Mannheim). Fluoro-Jade™ is a fluorescent stain that labels degenerating neurons in fixed brain sections. The total number of degenerated hippocampal neurons labeled with Fluoro-Jade™ was recorded from the CA1, CA3, and total hippocampus regions of each section selected for quantitative analysis. Slide-mounted sections were viewed with a Zeiss (Axiovert) fluorescent microscope, digital photomicrographs were captured with a cooled CCD camera (Princeton), and degenerating hippocampal neurons manually counted in a blinded fashion. […] Caspase activity was measured in homogenized hippocampal and cerebellar samples using the fluorogenic substrate acetylated DEVD aminofluorocoumarin. DEVD-ase activity was standardized to protein content as determined by standard Lowry analysis.

hippocampal neurons = test: Kainic acid-induced seizure neurodegeneration in YAC transgenic mice; type: in vivo
Description: Yeast artificial chromosome (YAC) transgenic mice were generated that over-express wild-type human htt at 2-3 times the levels of endogenous htt in wild-type mice (FVB/NJ) (Hodgson et al.(1996) Hum. Mol. Genet. 5, 1875-1885). Fifteen of these transgenic and 23 control FVB/NJ mice 4-8 months of age each received a single intraperitoneal injection of 25 mg/kg kainic acid (KA) or an equal volume of vehicle (PBS). Intraperitoneal injections of kainic acid injections cause prolonged seizures in mice, and each mouse was observed continuously for two hours following injection. The occurrence, severity, and duration of seizures was recorded.
One week following KA injection, brains were removed from one group of the mice and immediately frozen in isopentene on dry ice. Serial 30 μm coronal cryostat sections were cut through the entire hippocampus. After every fifth section, two sections were removed for quantitative analysis and fixed in 3% paraformaldehyde for 30 minutes in preparation for histochemical staining. Degenerating neurons were identified in hippocampal sections by Fluoro-Jade™ histochemistry (Histo-Chem Inc.), silver staining (FD Neurotechnologies) and by TUNEL™ (Boehringer Mannheim). Fluoro-Jade™ is a fluorescent stain that labels degenerating neurons in fixed brain sections. The total number of degenerated hippocampal neurons labeled with Fluoro-Jade™ was recorded from the CA1, CA3, and total hippocampus regions of each section selected for quantitative analysis. Slide-mounted sections were viewed with a Zeiss (Axiovert) fluorescent microscope, digital photomicrographs were captured with a cooled CCD camera (Princeton), and degenerating hippocampal neurons manually counted in a blinded fashion. To assess the role of caspase activation in this process, the hippocampus and cerebellum were removed from a second group of animals 8 hours following KA-induced seizures. Caspase activity was measured in homogenized hippocampal and cerebellar samples using the fluorogenic substrate acetylated DEVD aminofluorocoumarin. DEVD-ase activity was standardized to protein content as determined by standard Lowry analysis.

NIH3T3 cells [2] = test: Cellular proliferation after transient transfection, colorometric assay of cell number; type: cell-based
Description: The ability of NIH3T3 cells to overcome contact inhibition when transfected with different gene constructs has been used for many years to assess oncogenic potential of certain genes and to identify potential oncogenes. Cellular proliferation was assessed following transient transfections of NIH3T3 cells using a standardised colorometric assay of cell number. The effect of htt on cellular growth was examined and compared to the effect of a known oncogene, ras (FIG. 17). NIH3T3 cells transfected with htt constructs show a significant increase in cellular proliferation (5-6 fold increase in proliferation compared to control vector) that is similar to the effect of ras.

[3] = Retrospective analysis of tumor development in transgenic mouse colony; type: in vivo, mice
Description: A retrospective analysis was performed to examine the total numbers of mice (identified by the animal colony health staff) that developed tumors in the colony of transgenic mice. The records of all mice diagnosed with tumors over a 6 month period were examined, in a group of mice over-expressing wild-type human htt and their wild-type littermates. […] The average age of tumor development was younger in the transgenic group 13.8 months compared to 17.1 months for wild-type littermates. The majority of identified tumors in male mice were testicular tumors.

NIH3T3 cells [4] = test: Soft agar colony formation and transformation of retrovirally transfected cells; type: cell-based
Description: Retroviral introduction of the S421 mutants into NIH3T3 cells was used to examine the oncogenic (proliferative) effects of phosphorylation on serine 421. […] To test the oncogenic potential of htt and to examine the effect of phosphorylation of htt at S421 on cell proliferation, a soft agar assay was conducted in NIH3T3 cells (FIG. 21). […] Mutant htt (HD138) transfection leads to no (0%) soft agar colonies.

[5] = Body weight of transgenic mice over-expressing wild-type htt; type: in vivo; settings: transgenic mice aged 5-8 months over-expressing wild-type htt
Description: One of the roles of the pro-survival (e.g. anti-apoptotic) function of wild-type htt may be in control of tissue mass and cellular proliferation. Increased levels of wild-type htt expression can lead to increased body tissue mass and may predispose mice to the development of tumors. The effect of over-expression of human wild-type htt on the body weight of transgenic mice was compared to wild-type mice (FIG. 16). […] The average body weight was approximately 25% greater for the transgenic mice compared to wild-type. […] Over production of cells in the body can have a variety of unwanted outcomes including but not limited to obesity or cancer. This may be due to decreased naturally occurring apoptosis or increased cellular proliferation.

NIH/3T3 cells = test: Anoikis assay on poly-HEMA coated plates, annexin-V-FITC/PI; type: cell-based, murine; settings: detached, 8 hours, p<0.05 vs parental cells
Description: Using the murine transformed fibroblast cell line, NIH/3T3, the anoikis-resistance properties of wild type htt (15 glutamine repeat) and mutant htt (138 glutamine repeat) were investigated. NIH/3T3 cells require a matrix for attachment in order to experience optimum growing conditions. When detached from the supporting matrix, they experience a high rate of apoptosis. NIH/3T3 cells were transfected with a mammalian expression vector containing wild type htt (15 glutamine repeat) or mutant htt (138 glutamine repeat). Untransfected and transfected NIH/3T3 cells were grown on cell culture plates, whose plastic surface served as a substrate for matrix deposition and subsequent cellular attachment, or on poly-HEMA coated cell culture plates. The nonionic nature of poly-HEMA inhibits both matrix deposition and subsequent cell attachment. […] The cells were cultured in DMEM with 10% serum for 8 hours under attached conditions on plastic plates or under detached conditions on poly-HEMA-coated plastic plates. Cells were harvested, counted and viability was assessed via annexin-V-FITC and propidium iodide (PI) staining.

wild-type htt: wild-type human huntingtin protein, polyglutamine tract of less than 35 glutamines; over-expressed in YAC line 212 mice or transfected (15 glutamine repeat)
cerebellar caspase activation (DEVD-ase activity) ([1]; cerebellum, wild-type mice 8.68 +/−1.67, no significant difference): 13.66 +/−2.32 | hippocampal caspase activation (DEVD-ase activity) ([1]; hippocampus, wild-type mice 20.8 +/−1.77, P=0.02): 14.5 +/−1.49 | average number of degenerating neurons per animal (Fluoro-Jade) (hippocampal neurons; CA1 region, 25 mg/kg KA i.p., one week, control 2360): 3 | average number of degenerating neurons per animal (Fluoro-Jade) (hippocampal neurons; CA3 region, 25 mg/kg KA i.p., one week, control 2003): 79 | fold less degenerating hippocampal neurons than control animals (hippocampal neurons; after KA-induced seizures): approximately 50 fold | TUNEL labeled apoptotic hippocampal neurons (hippocampal neurons; after KA-induced seizures, transgenic mice): few apoptotic hippocampal neurons | argyrophyllic labelling of neuronal soma (silver staining) (hippocampal neurons; hippocampal sections after KA-induced seizures, transgenic vs wild-type mice): dramatically reduced | average number of degenerating hippocampal neurons per animal (Fluoro-Jade) (hippocampal neurons; total hippocampus, mice expressing 2-3 times endogenous htt levels, 25 mg/kg KA i.p., one week, control 4362): 81 | increase in proliferation compared to control vector (NIH3T3 cells [2]): 5-6 fold | mice identified with tumors that were transgenic ([3]; 6 month period, 38/45): 84.5% | average age of tumor development ([3]; transgenic group, wild-type littermates 17.1 months): 13.8 months | soft agar colonies (NIH3T3 cells [4]; retrovirally transfected NIH3T3 cells, control cells about 5%): about 15% | increase in number of colonies over control cells (NIH3T3 cells [4]; soft agar, NIH3T3 cells): 3 fold | morphologic transformation (NIH3T3 cells [4]; stable retroviral transfection of NIH3T3 cells): malignant, morphologic transformation | average body weight greater than wild-type mice [5]: approximately 25% | protection from cell death induced by anoikis (NIH/3T3 cells): Protection from cell death induced by anoikis
